# Measurements published in PubChem BioAssay AID248 (DTP/NCI, 2004).
# “And” between values parts separate entries of the source, which are not always exact repeats. Equal entries are not always repeated. Inconclusive results and toxic doses are left out.
# Tested on: L1210 leukemia ip in BDF1 mice, survival T/C
# Assay: NCI In Vivo Anticancer Drug Screen. Data for tumor model L1210 Leukemia (intraperitoneal) in B6D2F1 (BDF1) mice
# Settings: endpoint: mean survival time, higher = longer survival
# How it was run: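 Survival endpoint. Drug-treated group vs vehicle group, expressed as T divided by C. Tumor passaged by transplantation.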
# [1] = dose: 100.0 mg/kg/injection, schedule: Q01DX009 (ip), vehicle: saline
# [2] = dose: 200.0 mg/kg/injection, schedule: Q01DX009 (ip), vehicle: saline
# [3] = dose: 400.0 mg/kg/injection, schedule: Q01DX009 (ip), vehicle: saline
# [4] = dose: 25.0 mg/kg/injection, schedule: Q01DX009 (ip), vehicle: Klucel (hydroxypropylcellulose) (HPC)
# [5] = dose: 50.0 mg/kg/injection, schedule: Q01DX009 (ip), vehicle: Klucel (hydroxypropylcellulose) (HPC)
# [6] = dose: 100.0 mg/kg/injection, schedule: Q01DX009 (ip), vehicle: Klucel (hydroxypropylcellulose) (HPC)
# [7] = dose: 100.0 mg/kg/injection, schedule: Q04DX003 (ip), vehicle: saline with Tween-80
# [8] = dose: 200.0 mg/kg/injection, schedule: Q04DX003 (ip), vehicle: saline with Tween-80
# [9] = dose: 400.0 mg/kg/injection, schedule: Q04DX003 (ip), vehicle: saline with Tween-80
# [10] = dose: 50.0 mg/kg/injection, schedule: Q01DX001 (ip), vehicle: carboxymethylcellulose (CMC)
# [11] = dose: 100.0 mg/kg/injection, schedule: Q01DX001 (ip), vehicle: carboxymethylcellulose (CMC)
# [12] = dose: 100.0 mg/kg/injection, schedule: Q04DX003 (ip), vehicle: Klucel (hydroxypropylcellulose) (HPC)
# [13] = dose: 200.0 mg/kg/injection, schedule: Q01DX001 (ip), vehicle: carboxymethylcellulose (CMC)
# [14] = dose: 200.0 mg/kg/injection, schedule: Q04DX003 (ip), vehicle: Klucel (hydroxypropylcellulose) (HPC)
# [15] = dose: 400.0 mg/kg/injection, schedule: Q01DX001 (ip), vehicle: carboxymethylcellulose (CMC)
# [16] = dose: 400.0 mg/kg/injection, schedule: Q04DX003 (ip), vehicle: Klucel (hydroxypropylcellulose) (HPC)
# [17] = dose: 200.0 mg/kg/injection, schedule: Q01DX009 (ip), vehicle: Klucel (hydroxypropylcellulose) (HPC)
# [18] = dose: 400.0 mg/kg/injection, schedule: Q01DX009 (ip), vehicle: Klucel (hydroxypropylcellulose) (HPC)
# [19] = dose: 100.0 mg/kg/injection, schedule: Q01DX001 (ip), vehicle: saline
# [20] = dose: 200.0 mg/kg/injection, schedule: Q01DX001 (ip), vehicle: saline
# [21] = dose: 75.0 mg/kg/injection, schedule: Q01DX001 (ip), vehicle: saline
# [22] = dose: 150.0 mg/kg/injection, schedule: Q01DX001 (ip), vehicle: saline
# [23] = dose: 100.0 mg/kg/injection, schedule: Q04DX003 (ip), vehicle: saline
# [24] = dose: 400.0 mg/kg/injection, schedule: Q01DX001 (ip), vehicle: saline
smiles,measurement,setting,value
O=C(CCCC(=O)N/N=C/c1ccc(OCc2ccccc2)cc1)N/N=C\c1ccc(OCc2ccccc2)cc1,T/C,"dose: 50.0 mg/kg/injection, schedule: Q01DX001 (ip), vehicle: other",102 % of control
same,T/C,"dose: 100.0 mg/kg/injection, schedule: Q01DX001 (ip), vehicle: other",93 % of control
same,T/C,"dose: 200.0 mg/kg/injection, schedule: Q01DX001 (ip), vehicle: other",93 % of control
same,T/C,"dose: 400.0 mg/kg/injection, schedule: Q01DX001 (ip), vehicle: other",91 % of control
c1ccc2c(c1)CNNC2,T/C,"dose: 25.0 mg/kg/injection, schedule: Q01DX009 (ip), vehicle: saline",97 % of control
same,T/C,"dose: 50.0 mg/kg/injection, schedule: Q01DX009 (ip), vehicle: saline",96 % of control
same,T/C,[1],102 % of control
same,T/C,[2],103 % of control
same,T/C,[3],105 % of control
CC(C)c1oc(=O)cc2c1C(O)C1OC(=O)C3(C)C(O)C4OC4C2(C)C13 (stereo unspecified),T/C,[4],109 % of control
same,T/C,[5],116 % of control
same,T/C,[6],106 % of control and 88 % of control
CN(C)C(=O)Sc1ccc([N+](=O)[O-])cc1,T/C,[7],105 % of control
same,T/C,[8],111 % of control
same,T/C,[9],104 % of control
c1ccc(C2C(c3ccccc3)N2c2ccccc2)cc1 (stereo unspecified),T/C,[10],105 % of control
same,T/C,[11],113 % of control
same,T/C,[12],92 % of control
same,T/C,[7],97 % of control
same,T/C,[13],113 % of control
same,T/C,[14],94 % of control
same,T/C,[8],90 % of control
same,T/C,[15],103 % of control
same,T/C,[16],92 % of control
same,T/C,[9],87 % of control
O=C1CN(O)C(c2ccccc2)=c2cc(Cl)ccc2=N1,T/C,[4],100 % of control
same,T/C,"dose: 25.0 mg/kg/injection, schedule: Q04DX003 (ip), vehicle: Klucel (hydroxypropylcellulose) (HPC)",98 % of control
same,T/C,[5],101 % of control
same,T/C,"dose: 50.0 mg/kg/injection, schedule: Q04DX003 (ip), vehicle: Klucel (hydroxypropylcellulose) (HPC)",108 % of control
same,T/C,[6],95 % of control
same,T/C,[12],90 % of control
same,T/C,[17],92 % of control
same,T/C,[14],93 % of control
same,T/C,[18],108 % of control
same,T/C,[16],98 % of control
O=C(OCC1OC(n2cnc3c(=S)nc[nH]c32)C(OC(=O)c2ccc([N+](=O)[O-])cc2)C1OC(=O)c1ccc([N+](=O)[O-])cc1)c1ccc([N+](=O)[O-])cc1 (stereo unspecified),T/C,"dose: 16.5 mg/kg/injection, schedule: Q01DX009 (ip), vehicle: saline with Tween-80",95 % of control
same,T/C,"dose: 33.0 mg/kg/injection, schedule: Q01DX009 (ip), vehicle: saline with Tween-80",117 % of control
same,T/C,[19],121 % of control
same,T/C,"dose: 100.0 mg/kg/injection, schedule: Q01DX Z (ip), vehicle: other",112 % of control
same,T/C,"dose: 132.0 mg/kg/injection, schedule: Q01DX001 (ip), vehicle: saline",111 % of control and 118 % of control
same,T/C,[20],106 % of control and 120 % of control
same,T/C,[2],152 % of control
same,T/C,"dose: 300.0 mg/kg/injection, schedule: Q01DX001 (ip), vehicle: saline",117 % of control
same,T/C,"dose: 800.0 mg/kg/injection, schedule: Q01DX Z (ip), vehicle: other",93 % of control
c1csc(C2SC(c3cccs3)SC(c3cccs3)S2)c1 (stereo unspecified),T/C,[11],100 % of control
same,T/C,[13],92 % of control
same,T/C,[15],95 % of control
O=C(Nc1ccc([N+](=O)[O-])cc1Cl)Oc1ccc(Br)cc1Br,T/C,[7],100 % of control
same,T/C,[8],95 % of control
same,T/C,[9],100 % of control
CCOC(=O)/C(Cc1cc[n+]([O-])c2ccccc12)=N/O,T/C,[6],91 % of control
same,T/C,[12],92 % of control
same,T/C,[17],97 % of control
same,T/C,[14],90 % of control
same,T/C,[18],100 % of control
same,T/C,[16],100 % of control
CC1(C)N=C(N)N=C(N)N1c1ccc(OCCCOc2ccccc2)c(Cl)c1,T/C,[5],98 % of control
same,T/C,[6],102 % of control
same,T/C,[12],92 % of control
same,T/C,[14],91 % of control
c1cc[n+](CCNCC[n+]2ccccc2)cc1,T/C,[21],93 % of control
same,T/C,[22],94 % of control
O=C(Nc1cc([N+](=O)[O-])ccc1F)Oc1ccc2ccccc2c1,T/C,[1],111 % of control
same,T/C,[2],95 % of control
same,T/C,[3],106 % of control
CC1(C)CCCC2(C)C3CCC(C31)C2OC(=O)c1ccc([N+](=O)[O-])cc1 (stereo unspecified),T/C,"dose: 100.0 mg/kg/injection, schedule: Q01DX001 (ip), vehicle: Klucel (hydroxypropylcellulose) (HPC)",101 % of control
same,T/C,"dose: 200.0 mg/kg/injection, schedule: Q01DX001 (ip), vehicle: Klucel (hydroxypropylcellulose) (HPC)",98 % of control
same,T/C,"dose: 400.0 mg/kg/injection, schedule: Q01DX001 (ip), vehicle: Klucel (hydroxypropylcellulose) (HPC)",93 % of control
CSC(CC(=O)O)C(=O)O (stereo unspecified),T/C,[21],97 % of control
same,T/C,[22],108 % of control
COc1ccc2ncc(C)c(C=O)c2c1,T/C,[6],95 % of control
same,T/C,[17],96 % of control
same,T/C,[18],110 % of control
O=C(Nc1ccccc1O)C(O)C(O)C(O)C(O)CO (stereo unspecified),T/C,[23],87 % of control
same,T/C,"dose: 200.0 mg/kg/injection, schedule: Q04DX003 (ip), vehicle: saline",97 % of control
same,T/C,"dose: 400.0 mg/kg/injection, schedule: Q04DX003 (ip), vehicle: saline",91 % of control
c1ccc(CSC2=NCCS2)cc1,T/C,[19],101 % of control
same,T/C,"dose: 100.0 mg/kg/injection, schedule: Q01DX009 (ip), vehicle: saline with Tween-80",98 % of control
same,T/C,[20],106 % of control
same,T/C,"dose: 200.0 mg/kg/injection, schedule: Q01DX009 (ip), vehicle: saline with Tween-80",98 % of control
same,T/C,[24],106 % of control
same,T/C,"dose: 400.0 mg/kg/injection, schedule: Q01DX009 (ip), vehicle: saline with Tween-80",104 % of control
COC(=O)C1CNN=C1C(=O)N1Cc2cc3ccccc3nc2C1 (stereo unspecified),T/C,"dose: 10.0 mg/kg/injection, schedule: Q04DX003 (ip), vehicle: saline",94 % of control
same,T/C,"dose: 20.0 mg/kg/injection, schedule: Q04DX003 (ip), vehicle: saline",97 % of control
same,T/C,"dose: 40.0 mg/kg/injection, schedule: Q04DX003 (ip), vehicle: saline",91 % of control
same,T/C,"dose: 80.0 mg/kg/injection, schedule: Q04DX003 (ip), vehicle: saline",97 % of control
same,T/C,"dose: 160.0 mg/kg/injection, schedule: Q04DX003 (ip), vehicle: saline",99 % of control
Cc1ccc(S(=O)(=O)N(CC(=O)O)c2ccccc2-c2ccccc2)cc1,T/C,[19],100 % of control
same,T/C,[20],89 % of control
same,T/C,[24],100 % of control
COC(=O)C(N)C(C)C (stereo unspecified),T/C,"dose: 25.0 mg/kg/injection, schedule: Q01DX009 (ip), vehicle: water",100 % of control
same,T/C,"dose: 25.0 mg/kg/injection, schedule: Q04DX003 (ip), vehicle: water",106 % of control
same,T/C,"dose: 50.0 mg/kg/injection, schedule: Q01DX009 (ip), vehicle: water",102 % of control
same,T/C,"dose: 50.0 mg/kg/injection, schedule: Q04DX003 (ip), vehicle: water",104 % of control
same,T/C,"dose: 100.0 mg/kg/injection, schedule: Q01DX009 (ip), vehicle: water",102 % of control
same,T/C,"dose: 100.0 mg/kg/injection, schedule: Q04DX003 (ip), vehicle: water",114 % of control
same,T/C,"dose: 200.0 mg/kg/injection, schedule: Q01DX009 (ip), vehicle: water",103 % of control
same,T/C,"dose: 200.0 mg/kg/injection, schedule: Q04DX003 (ip), vehicle: water",101 % of control
same,T/C,"dose: 400.0 mg/kg/injection, schedule: Q01DX009 (ip), vehicle: water",100 % of control
same,T/C,"dose: 400.0 mg/kg/injection, schedule: Q04DX003 (ip), vehicle: water",104 % of control
O=[N+]([O-])c1cc(O)cc(F)c1,T/C,[11],100 % of control
NNS(=O)(=O)c1ccccc1,T/C,"dose: 25.0 mg/kg/injection, schedule: Q04DX003 (ip), vehicle: saline",101 % of control
same,T/C,[10],101 % of control
same,T/C,"dose: 50.0 mg/kg/injection, schedule: Q04DX003 (ip), vehicle: saline",101 % of control
same,T/C,[11],92 % of control
same,T/C,[23],103 % of control
